Assays:
[1] = target: T1, hTfR1 (extracellular domain of hTfR, His6-tagged) (Homo sapiens, UniProt P02786); assay: Surface plasmon resonance-based biosensor assay (Biacore T100), aptamer-hTfR binding affinity and kinetics; settings: for binding affinity and kinetics for hTfR1 (Biacore sensorgram), in words: compared with parent TR14; for ka (1/Ms), measured association rate / kd (1/s), measured disassociation rate / Kd: Biacore T100, biotinylated aptamer on streptavidin chip, hTfR1 protein injected, 1:1 binding with mass transfer; for Kd: read-out: K^D (M), equilibrium dissociation constant
T1 construct: (NP_003225.2) (Cys 89-Phe 760); His6 (N); purchased Sino Biological Inc 11020-H07H; host or cells: HEK293
T1 sequence (P02786 89-760): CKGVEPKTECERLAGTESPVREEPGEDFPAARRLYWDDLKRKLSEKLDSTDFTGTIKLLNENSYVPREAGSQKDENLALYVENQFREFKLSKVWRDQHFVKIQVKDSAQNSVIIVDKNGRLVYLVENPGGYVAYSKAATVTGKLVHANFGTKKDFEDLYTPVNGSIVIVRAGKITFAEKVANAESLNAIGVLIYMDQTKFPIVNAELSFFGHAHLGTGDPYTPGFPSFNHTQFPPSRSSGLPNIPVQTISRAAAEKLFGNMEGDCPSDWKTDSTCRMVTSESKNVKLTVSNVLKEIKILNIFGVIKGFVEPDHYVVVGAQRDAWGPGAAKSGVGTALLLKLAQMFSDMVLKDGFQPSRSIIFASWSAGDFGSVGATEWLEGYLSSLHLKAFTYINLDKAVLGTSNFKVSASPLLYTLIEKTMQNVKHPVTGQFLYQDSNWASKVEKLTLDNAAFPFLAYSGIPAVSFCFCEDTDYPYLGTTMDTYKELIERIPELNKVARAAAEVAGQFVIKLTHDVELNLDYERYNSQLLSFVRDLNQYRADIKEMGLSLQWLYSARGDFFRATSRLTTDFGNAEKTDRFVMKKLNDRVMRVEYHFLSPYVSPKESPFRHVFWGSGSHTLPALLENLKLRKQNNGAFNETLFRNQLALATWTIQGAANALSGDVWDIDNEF
Excerpt: Recombinant target protein. hTfR was purchased from Sino Biological Inc (11020-H07H, Beijing, P.R. China). The extracellular domain of hTfR (NP_003225.2) (Cys 89-Phe 760) was expressed with a His6-tag at the N-terminus in human cells (HEK293).
Surface plasmon resonance-based biosensor assay. The Biacore T100 (GE Healthcare, Uppsala, Sweden) was used to monitor label-free interactions of truncated TR14-hTfR1 in real time. The biotinylated aptamer was coupled to a streptavidin-coated Biacore chip (SensorChip SA, BR-1003-98, General Electric Company) by an injection in binding buffer at a concentration of 25 μg/mL (30 mM Tris-HCl, pH 7.5; 150 mM NaCl; 5 mM MgCl2) at 10 uL/min. The RNA was refolded by heating to 65° C., followed by cooling to 37° C., before immobilization. To measure binding kinetics, five concentrations of purified hTfR1 protein were injected at a flow rate of 10 uL/min. After binding, the surface was regenerated by injecting 50 mM NaOH at a flow rate of 15 μL/min for 20 s. Data from the control surface were subtracted. BIAevaluation software (GE Healthcare) was used for analysis. The binding data was fit to a 1:1 binding with a mass transfer model to calculate kinetics parameters as previously described (Hernandez et al, 2009; Soontornworajit et al, 2011)

PANC-Luc tumors = assay: Liver-metastatic pancreatic cancer mouse model, combinational treatment with gemcitabine; type: in vivo, NOD/SCID mice; settings: gemcitabine alone 50 mg/kg 2 times/week I.V., compared to vehicle-treated control
Experimental: Intrahepatic pancreatic cancer liver-metastatic mouse model. To create an animal model harboring traceable tumors, a firefly luciferase fragment was inserted into the pLKO.1-AS3 backbone encoding the neo gene (National RNAi Core, Academia Sinica, Taiwan). One day before transduction, 293T cells were plated onto a 6-well plate. On the day of transduction, the medium was replaced with DMEM containing serial dilutions of the transfer plasmids and incubated for 5 h, then the medium was replaced. After two days, the culture medium containing recombinant lentiviral particles was obtained. PANC-1 cells were incubated with recombinant lentiviral particles for 24 h. […] Luciferase expression was assessed using the Luciferase Assay System. […] For the combinational treatment with gemcitabine, tumors were allowed to grow for 2 weeks after inoculation until they could be detected using an IVIS system, then mice were randomly divided into five groups of 10 animals/group. […] Tumor growth was monitored by evaluating bioluminescence using an IVIS 200 in vivo imaging platform (Caliper Life Sciences, Alameda, Calif.) and measuring the difference from before the first injection and one day after the last injection. […] The mice were imaged using the IVIS 200 and bioluminescent signals were analyzed using Living Image Software (Caliper Life Sciences, Alameda, Calif.). […]

TfR1 = target: T2, TfR1 (Homo sapiens, UniProt P02786); assay: Cross-reactivity by live cell confocal imaging, U87MG cells (express TfR1, not TfR2); type: cell-based; settings: Cy3-labelled aptamer, U87MG cells (TfR1 only)
T2 construct: The U87MG cells only express TfR1, not TfR2; endogenous in cells; host or cells: U87MG (U-87 MG, ATCC HTB-14)
T2 sequence (P02786 whole entry): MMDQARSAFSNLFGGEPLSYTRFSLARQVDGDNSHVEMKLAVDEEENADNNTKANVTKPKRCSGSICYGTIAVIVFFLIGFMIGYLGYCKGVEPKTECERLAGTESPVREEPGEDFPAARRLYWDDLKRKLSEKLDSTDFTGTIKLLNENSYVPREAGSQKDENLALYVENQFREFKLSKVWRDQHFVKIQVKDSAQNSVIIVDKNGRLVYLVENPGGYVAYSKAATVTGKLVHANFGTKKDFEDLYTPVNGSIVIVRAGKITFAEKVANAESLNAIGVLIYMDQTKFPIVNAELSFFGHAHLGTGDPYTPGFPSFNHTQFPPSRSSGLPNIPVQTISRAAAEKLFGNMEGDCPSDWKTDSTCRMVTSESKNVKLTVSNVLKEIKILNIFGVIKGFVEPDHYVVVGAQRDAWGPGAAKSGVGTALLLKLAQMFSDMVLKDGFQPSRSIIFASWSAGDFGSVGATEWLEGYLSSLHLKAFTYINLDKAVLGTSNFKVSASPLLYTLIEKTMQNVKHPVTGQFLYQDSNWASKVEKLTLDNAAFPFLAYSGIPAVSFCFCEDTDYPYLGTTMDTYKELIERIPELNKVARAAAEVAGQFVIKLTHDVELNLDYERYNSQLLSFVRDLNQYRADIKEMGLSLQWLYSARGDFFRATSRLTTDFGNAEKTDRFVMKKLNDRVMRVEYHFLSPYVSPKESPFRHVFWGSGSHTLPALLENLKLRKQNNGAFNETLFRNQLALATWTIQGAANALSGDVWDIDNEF
Experimental: (§1) Cell line. HepG2 (Hepatocarcinoma, HB-8065) and PANC-1 (Pancreatic epithelioid carcinoma, CRL-1469), U-87 MG (Glioblastoma, HTB-14) were purchased from the American Type Culture Collection (ATCC, Manassas, Va.). The cells were cultured according to the suppliers' instructions. TB10 human glioma cell line was obtained from Vittorio de Franciscis lab in Italy. The cells were cultured according to the suppliers' instructions.
(§2) To determine the potential cross-reactivity of the parent TR14, S2 (43-nt) and ST1-3 (22-nt) truncates, we tested chemically synthesized parent TR14, TR14-[…] or TR14-ST1-3 aptamer labelled with Cy3 on live cells imaging by confocal microscopy. To test this, we choose two glioblastoma cell lines (U87MG and TB10) that are selectively expressed of TfR1 or TfR2. The U87MG cells only express TfR1, not TfR2. In contrast, TB10 expresses TfR2, not TfR1.

TfR2 = target: T3, TfR2 (Homo sapiens, UniProt Q9UP52); assay: Cross-reactivity by live cell confocal imaging, TB10 cells (express TfR2, not TfR1); type: cell-based; settings: Cy3-labelled aptamer, TB10 cells (TfR2 only)
T3 construct: In contrast, TB10 expresses TfR2, not TfR1; endogenous in cells; host or cells: TB10 human glioma cells
T3 sequence (Q9UP52 1-801): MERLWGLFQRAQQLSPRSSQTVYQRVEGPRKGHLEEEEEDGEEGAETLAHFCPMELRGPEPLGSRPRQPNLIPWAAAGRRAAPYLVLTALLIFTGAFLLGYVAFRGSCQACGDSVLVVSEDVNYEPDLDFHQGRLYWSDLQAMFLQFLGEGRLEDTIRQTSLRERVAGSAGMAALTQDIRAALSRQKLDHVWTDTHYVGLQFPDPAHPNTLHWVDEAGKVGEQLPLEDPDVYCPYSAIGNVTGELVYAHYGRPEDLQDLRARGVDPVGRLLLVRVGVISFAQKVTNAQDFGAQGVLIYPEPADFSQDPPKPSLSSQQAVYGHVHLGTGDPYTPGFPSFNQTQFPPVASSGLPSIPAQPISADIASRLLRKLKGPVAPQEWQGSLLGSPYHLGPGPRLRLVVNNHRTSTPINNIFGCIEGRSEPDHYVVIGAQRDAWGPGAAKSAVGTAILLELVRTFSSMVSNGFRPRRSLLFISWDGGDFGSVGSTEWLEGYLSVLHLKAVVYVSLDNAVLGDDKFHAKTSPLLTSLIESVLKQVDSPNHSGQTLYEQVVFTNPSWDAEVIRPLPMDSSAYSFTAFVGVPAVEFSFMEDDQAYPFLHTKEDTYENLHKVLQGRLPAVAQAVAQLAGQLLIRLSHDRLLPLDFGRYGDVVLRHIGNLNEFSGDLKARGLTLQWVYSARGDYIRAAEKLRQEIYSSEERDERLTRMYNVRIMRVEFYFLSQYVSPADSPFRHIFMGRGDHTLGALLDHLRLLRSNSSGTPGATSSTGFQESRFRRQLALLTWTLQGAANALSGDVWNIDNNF
Experimental: as §1, §2

| Compound | binding affinity and kinetics for hTfR1 (Biacore sensorgram), in words [1] | reduction of tumor volume (PANC-Luc tumors) | binding to TfR1 (TfR1) | ka (1/Ms), measured association rate [1] | kd (1/s), measured disassociation rate [1] | Kd [1] | binding to TfR2 (TfR2) |
| --- | --- | --- | --- | --- | --- | --- | --- |
| TR14 ST1-2: TR14 truncate, 32-nt, 5′-AAUGCGUUCACGUUUAUUCACAUUUUUGAAUU-3′; SEQ ID NO:5 (listed as RNA, chemistry not given here) | neither TR14 ST1-1 nor TR14 ST1-2 were measurable |  |  |  |  |  |  |
| Nc1ccn([C@@H]2O[C@H](CO)[C@@H](O)C2(F)F)c(=O)n1 [gemcitabine, 2′, 2′-difluoro 2′deoxycytidine, reference compound] |  | ~70% |  |  |  |  |  |
| TR14 ST1-3: TR14 truncate, 22-nt, 5′-UUUAUUCACAUUUUUGAAUUGA-3′; SEQ ID NO:6 (listed as RNA, chemistry not given here) |  |  | cross-activity on both TfR1 and TfR2 | 6.3e+06 M⁻¹ s⁻¹ | 0.000138 s⁻¹ | 2.2e-11 M | cross-activity on both TfR1 and TfR2 |
| TR14 S2: TR14 truncate, 43-nt, with 5′-GGG; SEQ ID NO:3 (GGGGCUCAAUGCGUUCACGUUUAUUCACAUUUUUGAAUUGAGC; listed as RNA, chemistry not given here) | improved kinetic constants |  | selective binding to TfR1 | 8.34e+08 M⁻¹ s⁻¹ | 0.000577 s⁻¹ |  | selective binding to TfR1 |
| TR14 ST1-1: TR14 truncate, 40-nt, without 5′-GGG, chemically synthesized; SEQ ID NO:4 (GCUCAAUGCGUUCACGUUUAUUCACAUUUUUGAAUUGAGC; chemically synthesized, modifications not given here, further chemistry not given here) | neither TR14 ST1-1 nor TR14 ST1-2 were measurable |  |  |  |  |  |  |
| TR14 S1: TR14 truncate, 46-nt, with 5′-GGG; SEQ ID NO:2 (GGGGCUCAAUGCGUUCACGUUUAUUCACAUUUUUGAAUUGAGCAUG; listed as RNA, chemistry not given here) |  |  |  | 13000 M⁻¹ s⁻¹ | 1.89e-05 s⁻¹ | 1.46e-09 M |  |
